Test: Antioxidant activity assessed as trolox equivalents of ABTS radical scavenging activity
Format: functional

For COc1ccc(Nc2nc(N)c(C(=O)c3ccccc3)s2)cc1, the Activity was 0.17 µM.

From ChEMBL document CHEMBL3045348, “Thiazoles: having diverse biological activities” (Med Chem Res, 2012)
